From US7504422B2, “Polyamine compounds” (Taigen Biotechnology Co. Ltd., priority 2003, dated 2009)

B1: G-CSF: granulocyte-colony stimulating factor; growth factor for stem cells and EPCs currently used in clinics (protein, UniProt P09919 31-207, looked up)
Granulocyte …: TPLGPASSLPQSFLLKCLEQVRKIQGDGAALQEKLVSECATYKLCHPEELVLLGHSLGIPWAPLSSCPSQALQLAGCLSQLHSGLFLYQGLLQALEGISPELGPTLDTLQLDVADFATTIWQQMEELGMAPALQPTQGAMPAFASAFQRRAGGVLVASHLQSFLEVSYRVLRHLAQP

Assays:
[1] = system: hematopoietic stem cells CD34+ and EPCs CD133+; test: Stem cell and endothelial progenitor cell mobilization into peripheral blood; type: in vivo, BALB/c mice; conditions: for Fold increase at 1 mg/Kg, CD34+ / Fold increase at Maximum Tolerated Dose (MTD), CD34+: CD34+ cells in circulation; for Fold increase at 1 mg/Kg, CD34+ / Fold increase at Maximum Tolerated Dose (MTD), CD34+ / Fold increase at 1 mg/Kg, CD133+ / Fold increase at Maximum Tolerated Dose (MTD), CD133+: mice; for Fold increase at Maximum Tolerated Dose (MTD), CD34+ / Fold increase at Maximum Tolerated Dose (MTD), CD133+: MTD (125: 15 mg/kg, 136: 30 mg/Kg); for Fold increase at 1 mg/Kg, CD133+ / Fold increase at Maximum Tolerated Dose (MTD), CD133+: CD133+ cells in circulation; for Fold increase in circulation, CD34+ / Fold increase in circulation, CD133+: Table 2, 125 at 15 mg/Kg, G-CSF at 50 ug/kg/d × 4, alone or combined; for mobilization of hematopoietic stem cells CD34+ and EPCs CD133+ into peripheral blood: animal studies
Method: The in vivo efficacy of these two compounds in mobilizing stem cells was tested in male Special Pathogens Free (SPF) BALB/c mice. Different concentrations of a compound solution were prepared and administrated either intravenously of intramuscularly into mice. Mice receiving saline were used as a control. Whole blood was collected at 3 hours after i.v. injection or 6 hours after i.m. injection by cardiac puncture. Total leukocytes were resuspended in PBS and cell numbers were counted using trypan blue exclusion. Cells numbers were adjusted to 6×10^4 in 0.1 mL PBS for antibody staining. CXCR4^+ cells, CD34^+ cells, and CD133^+ cells were counted using surface staining and flow cytometry analysis. Data represents mean ±SEM of four independent experiments. Levels of cell number in different groups were compared using One-way ANOVA, differences were considered significant if P values were <0.05.

Maximum Tolerated Dose = conditions: male, BALB/c, mouse, in vivo, intravenous; mice

Molecule	Fold increase at 1 mg/Kg, CD34+ [1]	Fold increase at Maximum Tolerated Dose (MTD), CD34+ [1]	Fold increase at 1 mg/Kg, CD133+ [1]	Fold increase at Maximum Tolerated Dose (MTD), CD133+ [1]	Fold increase in circulation, CD34+ [1]	Fold increase in circulation, CD133+ [1]	mobilization of hematopoietic stem cells CD34+ and EPCs CD133+ into peripheral blood [1]	MTD (Maximum Tolerated Dose)
c1ccc(CNCCN(CCNCc2ccccn2)Cc2ccc(CNCc3nc4ccccc4[nH]3)cc2)nc1 [Compound 125, N-(4-{[(1H-benzoimidazol-2-ylmethyl)-amino]-methyl}-benzyl)-N′-pyridin-2-ylmethyl-N-{2-[(pyridin-2-ylmethyl)-amino]-ethyl}-ethane-1,2-diamine]	3.99 fold	6.58 fold	2.24 fold	5.77 fold	7.1 fold	6.0 fold	rapidly mobilized	15 mg/kg
COc1ccc2[nH]c(CNCc3ccc(CN(CCNCc4ccccn4)CCNCc4ccccn4)cc3)nc2c1 [Compound 136, N1-(4-(((5-methoxy-1H-benzo[d]imidazol-2-yl)methylamino)methyl)benzyl)-N2-(pyridin-2-ylmethyl)-N1-(2-(pyridin-2-ylmethylamino)-ethyl)ethane-1,2-diamine]	2.63 fold	5.66 fold	3.17 fold	8.49 fold			rapidly mobilized	30 mg/kg
B1					8.4 fold	26.2 fold		
